Laboratory results from PubChem BioAssay (NCI).
Where “and” joins values, the source holds several entries; their conditions need not be identical. Equal values may be shown once.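 These data come from cells grown in 96-well plates and exposed to compound for 48 hours at five concentrations. GI50: concentration for 50% inhibition of growth. TGI: concentration producing complete growth inhibition.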

Assays:
Test in all cases: DTP human tumour cell line panel, 48 h
M14 melanoma = system: M14 melanoma
COLO 205 colon = system: COLO 205 colon
A549 NSCLC = system: A549 NSCLC
SF-268 CNS = system: SF-268 CNS
NCI-H522 lung = system: NCI-H522 lung
MDA-MB-435 = system: MDA-MB-435
SF-295 CNS = system: SF-295 CNS
DU-145 prostate = system: DU-145 prostate
UO-31 renal = system: UO-31 renal
UACC-257 melanoma = system: UACC-257 melanoma
MOLT-4 leukemia = system: MOLT-4 leukemia
MDA-N = system: MDA-N
RXF 393 renal = system: RXF 393 renal
PC-3 prostate = system: PC-3 prostate
HOP-62 NSCLC = system: HOP-62 NSCLC
RPMI-8226 leukemia = system: RPMI-8226 leukemia
CCRF-CEM leukemia = system: CCRF-CEM leukemia
NCI/ADR-RES ovarian = system: NCI/ADR-RES ovarian
HS 578T breast = system: HS 578T breast
ACHN renal = system: ACHN renal
HOP-92 NSCLC = system: HOP-92 NSCLC
LOX IMVI melanoma = system: LOX IMVI melanoma
SK-MEL-28 melanoma = system: SK-MEL-28 melanoma
IGROV1 ovarian = system: IGROV1 ovarian
HL-60(TB) leukemia = system: HL-60(TB) leukemia
SNB-19 CNS = system: SNB-19 CNS
HT29 colon = system: HT29 colon
KM12 colon = system: KM12 colon
SW-620 colon = system: SW-620 colon
BT-549 breast = system: BT-549 breast
SF-539 CNS = system: SF-539 CNS
NCI-H23 lung = system: NCI-H23 lung
A498 renal = system: A498 renal
SR leukemia = system: SR leukemia
OVCAR-3 ovarian = system: OVCAR-3 ovarian
K-562 leukemia = system: K-562 leukemia
OVCAR-8 ovarian = system: OVCAR-8 ovarian
SN12C renal = system: SN12C renal
HCT-116 colon = system: HCT-116 colon
T-47D breast = system: T-47D breast
786-0 renal = system: 786-0 renal
CAKI-1 renal = system: CAKI-1 renal
UACC-62 melanoma = system: UACC-62 melanoma
HCT-15 colon = system: HCT-15 colon
MDA-MB-231 breast = system: MDA-MB-231 breast
U251 CNS = system: U251 CNS
HCC-2998 colon = system: HCC-2998 colon
SK-MEL-5 melanoma = system: SK-MEL-5 melanoma
OVCAR-5 ovarian = system: OVCAR-5 ovarian
NCI-H460 lung = system: NCI-H460 lung
SNB-75 CNS = system: SNB-75 CNS
SK-OV-3 ovarian = system: SK-OV-3 ovarian
EKVX NSCLC = system: EKVX NSCLC
TK-10 renal = system: TK-10 renal
MCF7 breast = system: MCF7 breast
OVCAR-4 ovarian = system: OVCAR-4 ovarian
SK-MEL-2 melanoma = system: SK-MEL-2 melanoma
MALME-3M melanoma = system: MALME-3M melanoma
NCI-H226 lung = system: NCI-H226 lung

SMILES: CCOC(=O)c1ccc(Nc2nc3cc(C(F)(F)F)ccc3nc2C(=O)OCC)cc1
- TGI (M14 melanoma): > 100 µM
- TGI (COLO 205 colon): > 100 µM
- TGI (A549 NSCLC): > 100 µM
- TGI (SF-268 CNS): > 100 µM
- TGI (NCI-H522 lung): > 100 µM
- TGI (MDA-MB-435): > 100 µM
- TGI (SF-295 CNS): > 100 µM
- TGI (DU-145 prostate): > 100 µM
- TGI (UO-31 renal): > 100 µM
- TGI (UACC-257 melanoma): > 100 µM
- TGI (MOLT-4 leukemia): > 100 µM
- TGI (MDA-N): > 100 µM
- TGI (RXF 393 renal): > 100 µM
- TGI (PC-3 prostate): > 100 µM
- TGI (HOP-62 NSCLC): 65.2 µM
- TGI (RPMI-8226 leukemia): > 100 µM
- TGI (CCRF-CEM leukemia): > 100 µM
- TGI (NCI/ADR-RES ovarian): > 100 µM
- TGI (HS 578T breast): > 100 µM
- TGI (ACHN renal): > 100 µM
- TGI (HOP-92 NSCLC): > 100 µM
- TGI (LOX IMVI melanoma): > 100 µM
- TGI (SK-MEL-28 melanoma): > 100 µM
- TGI (IGROV1 ovarian): > 100 µM
- TGI (HL-60(TB) leukemia): > 100 µM
- TGI (SNB-19 CNS): 62.2 µM
- TGI (HT29 colon): > 100 µM
- TGI (KM12 colon): > 100 µM
- TGI (SW-620 colon): > 100 µM
- TGI (BT-549 breast): > 100 µM
- TGI (SF-539 CNS): > 100 µM
- TGI (NCI-H23 lung): > 100 µM
- TGI (A498 renal): > 100 µM
- TGI (SR leukemia): > 100 µM
- TGI (OVCAR-3 ovarian): > 100 µM
- TGI (K-562 leukemia): > 100 µM
- TGI (OVCAR-8 ovarian): > 100 µM
- TGI (SN12C renal): > 100 µM
- TGI (HCT-116 colon): > 100 µM
- TGI (T-47D breast): > 100 µM
- TGI (786-0 renal): 87 µM
- TGI (CAKI-1 renal): 49.6 µM
- TGI (UACC-62 melanoma): > 100 µM
- TGI (HCT-15 colon): > 100 µM
- TGI (MDA-MB-231 breast): > 100 µM
- TGI (U251 CNS): 40.7 µM
- TGI (HCC-2998 colon): 69.5 µM
- TGI (SK-MEL-5 melanoma): 89.3 µM
- TGI (OVCAR-5 ovarian): > 100 µM
- TGI (NCI-H460 lung): > 100 µM
- TGI (SNB-75 CNS): > 100 µM
- TGI (SK-OV-3 ovarian): > 100 µM
- TGI (EKVX NSCLC): > 100 µM
- TGI (TK-10 renal): 63.1 µM
- TGI (MCF7 breast): > 100 µM

SMILES: Cn1c(=N)n[n+]([O-])c2ccccc21
- TGI (M14 melanoma): 3.7 µM and 3.76 µM
- TGI (COLO 205 colon): 5.3 µM and 5.52 µM
- TGI (A549 NSCLC): 23.1 µM and 29.8 µM
- GI50 (SF-268 CNS): 2.67 µM and 7.11 µM
- TGI (SF-268 CNS): 7.7 µM and 17.6 µM
- TGI (OVCAR-4 ovarian): 7.55 µM and 5.23 µM
- TGI (NCI-H522 lung): 10.7 µM and 15.6 µM
- TGI (MDA-MB-435): 1.83 µM and 2.39 µM
- TGI (SF-295 CNS): 4.49 µM and 15.2 µM
- TGI (DU-145 prostate): 4.11 µM and 4.12 µM
- TGI (UO-31 renal): 8.83 µM and 17.6 µM
- TGI (UACC-257 melanoma): 5.51 µM and 3.92 µM
- TGI (MOLT-4 leukemia): 5.57 µM and 5.16 µM
- TGI (MDA-N): 3.66 µM
- TGI (RXF 393 renal): 36.4 µM
- TGI (PC-3 prostate): > 100 µM
- TGI (SK-MEL-2 melanoma): 8.87 µM and 12.5 µM
- TGI (HOP-62 NSCLC): 4.29 µM and 4.98 µM
- GI50 (RPMI-8226 leukemia): 1.99 µM and 0.574 µM
- TGI (RPMI-8226 leukemia): 5.19 µM and 7.67 µM
- TGI (CCRF-CEM leukemia): 21.2 µM and 48.7 µM
- GI50 (NCI/ADR-RES ovarian): 4.44 µM and 9.2 µM
- TGI (NCI/ADR-RES ovarian): > 100 µM and 42 µM
- GI50 (HS 578T breast): 2.85 µM and 5.89 µM
- TGI (HS 578T breast): 6.77 µM and 18.5 µM
- TGI (ACHN renal): 23.5 µM and 22 µM
- TGI (HOP-92 NSCLC): 90.9 µM
- TGI (LOX IMVI melanoma): > 100 µM
- GI50 (SK-MEL-28 melanoma): 2.42 µM and 7.01 µM
- TGI (SK-MEL-28 melanoma): 5.88 µM and 15.6 µM
- TGI (IGROV1 ovarian): 10.7 µM and 11.6 µM
- TGI (HL-60(TB) leukemia): 10.1 µM and 10.4 µM
- GI50 (SNB-19 CNS): 2.63 µM and 6.41 µM
- TGI (SNB-19 CNS): 12.3 µM and 13.3 µM
- TGI (HT29 colon): 4.88 µM and 15.1 µM
- TGI (MALME-3M melanoma): 6.15 µM
- TGI (KM12 colon): 37.8 µM and 36.7 µM
- TGI (SW-620 colon): > 26.8 µM
- TGI (BT-549 breast): 3.27 µM and 3.46 µM
- TGI (SF-539 CNS): 3.67 µM and 2.98 µM
- GI50 (NCI-H23 lung): 2.44 µM
- TGI (NCI-H23 lung): 4.4 µM and 6.39 µM
- GI50 (A498 renal): 3.07 µM and 9.29 µM
- TGI (A498 renal): 9.7 µM and 23.2 µM
- GI50 (SR leukemia): 3.87 µM
- TGI (SR leukemia): 14.7 µM and 9.32 µM
- TGI (K-562 leukemia): 10.8 µM and 5.45 µM
- TGI (OVCAR-8 ovarian): 31.6 µM and > 55.3 µM
- TGI (SN12C renal): 3.29 µM and 4.19 µM
- TGI (HCT-116 colon): > 100 µM
- GI50 (T-47D breast): 4.34 µM and 9.12 µM
- TGI (T-47D breast): 21.5 µM and 43.2 µM
- TGI (786-0 renal): 16 µM and 24.8 µM
- TGI (CAKI-1 renal): 5.86 µM and 6.18 µM
- TGI (UACC-62 melanoma): 2.37 µM and 3.61 µM
- GI50 (HCT-15 colon): 4.72 µM
- TGI (HCT-15 colon): 10.8 µM
- TGI (MDA-MB-231 breast): > 100 µM
- TGI (U251 CNS): 25.3 µM and 24.1 µM
- TGI (HCC-2998 colon): 39.1 µM
- TGI (SK-MEL-5 melanoma): 3.32 µM and 2.96 µM
- TGI (OVCAR-5 ovarian): 3.83 µM and 7.61 µM
- GI50 (NCI-H460 lung): 2.59 µM and 20 µM
- TGI (NCI-H460 lung): 4.53 µM and 37.5 µM
- TGI (SNB-75 CNS): 3.56 µM and 8.45 µM
- TGI (SK-OV-3 ovarian): 46.9 µM and 52.5 µM
- TGI (NCI-H226 lung): 24.8 µM and 32.4 µM
- TGI (EKVX NSCLC): 18.3 µM
- TGI (TK-10 renal): 70 µM and > 59.4 µM
- TGI (MCF7 breast): 5.32 µM
